Assay results published in patent US20260098061A1, “EPHA2-BINDING PENDING PEPTIDE AND COMPOSITION COMPRISING SAME” (PeptiDream Inc., priority 2022, published 2026).
Numbered stars: 1 amine (or outer) side, 2 acyl side, 3 side chain; on linkers, the order of the positions; unused ones are H or OH. Bridge positions count the residues as written; N and C are the ends. Square brackets hold non-standard residues; d marks the D form. Side chains are listed from the residue outwards. Peptide text beside a SMILES is read from it. * marks the point of attachment. Trp(1-Me,7-Cl) = Cn1cc(C[C@H](N)C(=O)O)c2cccc(Cl)c21; Ala(2-NH2-4-pyridyl) = Nc1cc(C[C@H](N)C(=O)O)ccn1; dPhe(3-CONH2) = NC(=O)c1cccc(C[C@@H](N)C(=O)O)c1; NMePhe(4-Cl) = CN[C@@H](Cc1ccc(Cl)cc1)C(=O)O; Piperazinyl(4-CH2COOH) = O=C(O)CN1CCN(*)CC1; Trp(1-Me) = Cn1cc(C[C@H](N)C(=O)O)c2ccccc21; NMemTyr = CN[C@@H](Cc1cccc(O)c1)C(=O)O; NMehCit = CN[C@@H](CCCCNC(N)=O)C(=O)O; NMe3Pal = CN[C@@H](Cc1cccnc1)C(=O)O; NMeF = CN[C@@H](Cc1ccccc1)C(=O)O; hArg = N=C(N)NCCCC[C@H](N)C(=O)O; hCit = NC(=O)NCCCC[C@H](N)C(=O)O; Gly(cBu) = N[C@H](C(=O)O)C1CCC1; NMeE = CN[C@@H](CCC(=O)O)C(=O)O; Aad = N[C@@H](CCCC(=O)O)C(=O)O; NMeN = CN[C@@H](CC(N)=O)C(=O)O; dAhp(2) = CCCCC[C@@H](N)C(=O)O; Chg = N[C@H](C(=O)O)C1CCCCC1; CO = O=C([*:1])[*:2]; βAla = NCCC(=O)O

Each compound was assayed against T1, Recombinant Human EphA2 Fc Protein (Homo sapiens, UniProt P29317) (assay: SPR interaction analysis (Biacore T200), kinetics of peptides against EphA2). Conditions: Recombinant Human EphA2 Fc Protein captured by Human Antibody Capture kit; single-cycle kinetics; 25° C.; HBS-P+ buffer with 1% DMSO.
T1 construct: purchased Elabscience
Assay type: binding
In short: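 On a Biacore T200 at 25° C, Fc-tagged human EphA2 was captured via anti-human antibody; peptides ran as five serial dilutions in HBS-P+ pH 7.4 with 1% DMSO by single-cycle kinetics. Baseline-subtracted data fitted for ka and kd, from which KD was derived.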

Row | Kd | SMILES
1 | < 1 nM | CC(C)C[C@@H]1NC(=O)[C@H](CC(N)=O)NC(=O)[C@H](Cc2ccccc2)N(C)C(=O)[C@@H](Cc2cccc(C(N)=O)c2)NC(=O)CSC[C@@H](C(N)=O)NC(=O)[C@H](CCCC(N)=O)NC(=O)[C@H]([C@@H](C)O)NC(=O)[C@H](Cc2cn(C)c3ccccc23)NC(=O)[C@H](C(C)C)NC(=O)[C@H](Cc2cn(C)c3c(Cl)cccc23)NC(=O)[C@H](CC(N)=O)N(C)C(=O)[C@H](CCCC(N)=O)NC1=O [PDC_EphA2-00019422, df3CON-MeF-N-L-Hgn-MeN-W1Me7Cl-V-W1Me-T-Hgn-C-NH2] ({CH2CO}-[dPhe(3-CONH2)][NMeF]NL[Aad](NH2)[NMeN][Trp(1-Me,7-Cl)]V[Trp(1-Me)]T[Aad](NH2)C-NH2; thioether N-12)
2 | < 1 nM | C[C@H]1SCC(=O)N[C@H](Cc2cccc(C(N)=O)c2)C(=O)N(C)[C@@H](Cc2cccnc2)C(=O)N[C@@H](CC(N)=O)C(=O)N[C@@H](C2CCC2)C(=O)N[C@@H](CCCC(N)=O)C(=O)N(C)[C@@H](CCC(=O)O)C(=O)N[C@@H](Cc2cn(C)c3c(Cl)cccc23)C(=O)N[C@@H](CCCCNC(=O)N2CCN(CC(=O)O)CC2)C(=O)N[C@@H](Cc2cn(C)c3ccccc23)C(=O)N[C@@H]1C(N)=O [PDC_EphA2-00026611, df3CON-Me3Py-N-Cbg-Hgn-MeE-W1Me7Cl-KCOpipzaa-W1Me-C3RMe-NH2]
3 | 1 to 10 nM | CC(=O)NCCCC[C@@H](NC(=O)CCNC(=O)[C@@H]1CSCC(=O)N[C@H](CCCCNC(=O)N2CCN(CC(=O)O)CC2)C(=O)N(C)[C@@H](Cc2cccnc2)C(=O)N[C@@H](CC(N)=O)C(=O)N[C@@H](CC(C)C)C(=O)N[C@@H](CCCC(=O)O)C(=O)N(C)[C@@H](Cc2ccccc2)C(=O)N[C@@H](Cc2cn(C)c3ccccc23)C(=O)N[C@@H](C(C)C)C(=O)N[C@@H](Cc2cn(C)c3ccccc23)C(=O)N[C@@H]([C@@H](C)O)C(=O)N[C@@H](CCC(=O)O)C(=O)N1)C(N)=O [PDC_EphA2-00008084, dkCOpipzaa-Me3Py-N-L-Hgl-MeF-W1Me-V-W1Me-T-E-C-bA-dkAc-NH2] ({CH2CO}-[dK]([CO-Piperazinyl(4-CH2COOH)])[NMe3Pal]NL[Aad][NMeF][Trp(1-Me)]V[Trp(1-Me)]TEC[βAla][dK](Ac)-NH2; thioether N-12)
4 | < 1 nM | CN1C(=O)[C@H](CCCC(N)=O)NC(=O)[C@H](C2CCC2)NC(=O)[C@H](CC(N)=O)NC(=O)[C@H](Cc2cccc(O)c2)N(C)C(=O)[C@@H](Cc2cccc(C(N)=O)c2)NC(=O)CSC[C@@H](C(N)=O)NC(=O)[C@H](Cc2cn(C)c3ccccc23)NC(=O)[C@H](CCCCNC(=O)N2CCN(CC(=O)O)CC2)NC(=O)[C@H](Cc2cn(C)c3c(Cl)cccc23)NC(=O)[C@@H]1CCC(=O)O [PDC_EphA2-00026608, df3CON-MeF3H-N-Cbg-Hgn-MeE-W1Me7Cl-KCOpipzaa-W1Me-C-NH2] ({CH2CO}-[dPhe(3-CONH2)][NMemTyr]N[Gly(cBu)][Aad](NH2)[NMeE][Trp(1-Me,7-Cl)]K([CO-Piperazinyl(4-CH2COOH)])[Trp(1-Me)]C-NH2; thioether N-10)
5 | < 1 nM | C[C@@H](O)[C@@H]1NC(=O)[C@H](Cc2cn(C)c3ccccc23)NC(=O)[C@H](CCCCNC(=O)N2CCN(CC(=O)O)CC2)NC(=O)[C@H](Cc2cn(C)c3c(Cl)cccc23)NC(=O)[C@H](Cc2ccccc2)N(C)C(=O)[C@H](CCCC(N)=O)NC(=O)[C@H](C2CCC2)NC(=O)[C@H](CC(N)=O)NC(=O)[C@H](Cc2cccnc2)N(C)C(=O)[C@@H](Cc2cccc(C(N)=O)c2)NC(=O)CSC[C@@H](C(N)=O)NC(=O)[C@H](CCCC(N)=O)NC1=O [PDC_EphA2-00019434, df3CON-Me3Py-N-Cbg-Hgn-MeF-W1Me7Cl-KCOpipzaa-W1Me-T-Hgn-C-NH2] ({CH2CO}-[dPhe(3-CONH2)][NMe3Pal]N[Gly(cBu)][Aad](NH2)[NMeF][Trp(1-Me,7-Cl)]K([CO-Piperazinyl(4-CH2COOH)])[Trp(1-Me)]T[Aad](NH2)C-NH2; thioether N-12)
6 | < 1 nM | CCCCC[C@H]1NC(=O)CSC[C@@H](C(N)=O)NC(=O)[C@H](CCCC(N)=O)NC(=O)[C@H]([C@@H](C)O)NC(=O)[C@H](Cc2cn(C)c3ccccc23)NC(=O)[C@H](CCCCNC(=O)N2CCN(CC(=O)O)CC2)NC(=O)[C@H](Cc2cn(C)c3ccccc23)NC(=O)[C@H](Cc2ccccc2)N(C)C(=O)[C@H](CCCC(N)=O)NC(=O)[C@H](C2CCCCC2)NC(=O)[C@H](CC(N)=O)NC(=O)[C@H](Cc2cccnc2)N(C)C1=O [PDC_EphA2-00018535, dahp-Me3Py-N-Chg-Hgn-MeF-W1Me-KCOpipzaa-W1Me-T-Hgn-C-NH2] ({CH2CO}-[dAhp(2)][NMe3Pal]N[Chg][Aad](NH2)[NMeF][Trp(1-Me)]K([CO-Piperazinyl(4-CH2COOH)])[Trp(1-Me)]T[Aad](NH2)C-NH2; thioether N-12)
7 | 100 to 400 nM | CC(C)C[C@@H]1NC(=O)[C@H](Cc2ccnc(N)c2)NC(=O)[C@H](Cc2ccccc2)NC(=O)CSC[C@@H](C(N)=O)NC(=O)[C@H](Cc2cn(C)c3ccccc23)NC(=O)[C@H](Cc2ccccc2)N(C)C(=O)[C@H](Cc2cn(C)c3ccccc23)NC(=O)[C@H](CCCCNC(N)=O)NC1=O [PDC_EphA2-00020708, F-4Py2NH2-L-Hcit-W1Me-MeF-W1Me-C-NH2] ({CH2CO}-F[Ala(2-NH2-4-pyridyl)]L[hCit][Trp(1-Me)][NMeF][Trp(1-Me)]C-NH2; thioether N-8)
8 | 100 to 400 nM | CC(C)C[C@@H]1NC(=O)[C@H](Cc2ccnc(N)c2)NC(=O)[C@H](Cc2ccccc2)NC(=O)CSC[C@@H](C(N)=O)NC(=O)[C@H](Cc2cn(C)c3ccccc23)NC(=O)[C@H](Cc2ccccc2)N(C)C(=O)[C@H](Cc2cn(C)c3ccccc23)NC(=O)[C@H](CCCCNC(N)=O)N(C)C1=O [PDC_EphA2-00026481, F-4Py2NH2-L-MeHcit-W1Me-MeF-W1Me-C-NH2] ({CH2CO}-F[Ala(2-NH2-4-pyridyl)]L[NMehCit][Trp(1-Me)][NMeF][Trp(1-Me)]C-NH2; thioether N-8)
9 | < 1 nM | CC(C)C[C@@H]1NC(=O)[C@H](CC(N)=O)NC(=O)[C@H](Cc2cccnc2)N(C)C(=O)[C@@H](C)NC(=O)CSC[C@@H](C(N)=O)NC(=O)[C@H](CCCC(N)=O)NC(=O)[C@H]([C@@H](C)O)NC(=O)[C@H](Cc2cn(C)c3ccccc23)NC(=O)[C@H](CCCCNC(=O)N2CCN(CC(=O)O)CC2)NC(=O)[C@H](Cc2cn(C)c3ccccc23)NC(=O)[C@H](Cc2ccc(Cl)cc2)N(C)C(=O)[C@H](CCCC(=O)O)NC1=O [PDC_EphA2-00018527, da-Me3Py-N-L-Hgl-MeF4C-W1Me-KCOpipzaa-W1Me-T-Hgn-C-NH2] ({CH2CO}-[dA][NMe3Pal]NL[Aad][NMePhe(4-Cl)][Trp(1-Me)]K([CO-Piperazinyl(4-CH2COOH)])[Trp(1-Me)]T[Aad](NH2)C-NH2; thioether N-12)
10 | < 1 nM | C[C@H]1NC(=O)CSC[C@@H](C(N)=O)NC(=O)[C@H](CCCC(N)=O)NC(=O)[C@H]([C@@H](C)O)NC(=O)[C@H](Cc2cn(C)c3ccccc23)NC(=O)[C@H](CCCCNC(=O)N2CCN(CC(=O)O)CC2)NC(=O)[C@H](Cc2cn(C)c3ccccc23)NC(=O)[C@H](Cc2ccccc2)N(C)C(=O)[C@H](CCCC(N)=O)NC(=O)[C@H](C2CCC2)NC(=O)[C@H](CC(N)=O)NC(=O)[C@H](Cc2cccnc2)N(C)C1=O [PDC_EphA2-00009999, da-Me3Py-N-Cbg-Hgn-MeF-W1Me-KCOpipzaa-W1Me-T-Hgn-C-NH2] ({CH2CO}-[dA][NMe3Pal]N[Gly(cBu)][Aad](NH2)[NMeF][Trp(1-Me)]K([CO-Piperazinyl(4-CH2COOH)])[Trp(1-Me)]T[Aad](NH2)C-NH2; thioether N-12)
11 | < 1 nM | C[C@@H](O)[C@@H]1NC(=O)[C@H](Cc2cn(C)c3ccccc23)NC(=O)[C@H](CCCCNC(N)=O)NC(=O)[C@H](Cc2cn(C)c3c(Cl)cccc23)NC(=O)[C@H](CCC(=O)O)N(C)C(=O)[C@H](CCCC(N)=O)NC(=O)[C@H](C2CCC2)NC(=O)[C@H](CC(N)=O)NC(=O)[C@H](Cc2ccccc2)N(C)C(=O)[C@@H](Cc2cccc(C(N)=O)c2)NC(=O)CSC[C@@H](C(N)=O)NC(=O)[C@H](CCCCNC(=N)N)NC1=O [PDC_EphA2-00019426, df3CON-MeF-N-Cbg-Hgn-MeN-W1Me7Cl-Hcit-W1Me-T-Hgn-C-NH2] ({CH2CO}-[dPhe(3-CONH2)][NMeF]N[Gly(cBu)][Aad](NH2)[NMeE][Trp(1-Me,7-Cl)][hCit][Trp(1-Me)]T[hArg]C-NH2; thioether N-12)
12 | 10 to 100 nM | CC(C)C[C@@H]1NC(=O)[C@H](CC(N)=O)NC(=O)[C@H](Cc2c[nH]cn2)NC(=O)[C@H](Cc2ccccc2)NC(=O)CSC[C@@H](C(=O)NCC(N)=O)NC(=O)[C@H](Cc2cn(C)c3ccccc23)NC(=O)[C@H](CCCCNC(N)=O)NC(=O)[C@H](Cc2cn(C)c3ccccc23)NC(=O)[C@H](Cc2ccccc2)N(C)C(=O)[C@H](CO)NC1=O [PDC_EphA2-00022606, F-H-N-L-S-MeF-W1Me-Hcit-W1Me-C-G-NH2] ({CH2CO}-FHNLS[NMeF][Trp(1-Me)][hCit][Trp(1-Me)]CG-NH2; thioether N-10)
13 | < 1 nM | CNC(=O)C[C@@H]1NC(=O)[C@H](CC(C)C)NC(=O)[C@H](CC(N)=O)NC(=O)[C@H](Cc2cccnc2)N(C)C(=O)[C@@H](C)NC(=O)CSC[C@@H](C(N)=O)NC(=O)[C@H](CCCC(N)=O)NC(=O)[C@H]([C@@H](C)O)NC(=O)[C@H](Cc2cn(C)c3ccccc23)NC(=O)[C@H](CCCCNC(=O)N2CCN(CC(=O)O)CC2)NC(=O)[C@H](Cc2cn(C)c3ccccc23)NC(=O)[C@H](CCC(=O)O)N(C)C1=O [PDC_EphA2-00018531, da-Me3Py-N-L-Nmm-MeE-W1Me-KCOpipzaa-W1Me-T-Hgn-C-NH2] ({CH2CO}-[dA][NMe3Pal]NLD(NHMe)[NMeE][Trp(1-Me)]K([CO-Piperazinyl(4-CH2COOH)])[Trp(1-Me)]T[Aad](NH2)C-NH2; thioether N-12)
